According to US20020137929A1, “1 - (3-heterocyclylphenyl) isothiourea, -isourea, -guanidine and -amidine herbicidal agents” (Intellectual Property Department, BASF Aktiengesellschaft, priority 1998, published 2002):

Experiments:
[1] = system: ECHCG (Barnyardgrass); experiment: Preemergence herbicidal evaluation; assay type: in vivo, Echinochloa crus-galli; conditions: rated 4-5 weeks after treatment
Method in brief: (§1)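 Scores use a 0–9 visual scale covering stand, vigor, malformation, size and chlorosis relative to controls, rated four to five weeks after treatment. Before emergence, soil-planted seeds were sprayed with compound in aqueous acetone at roughly 0.0156–0.500 kg/ha and held in the greenhouse.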

[2] = system: IPOHE (Morningglory, Ivyleaf); experiment: Preemergence herbicidal evaluation; assay type: in vivo, Ipomoea hederacea; conditions: rated 4-5 weeks after treatment
Method in brief: as §1

[3] = system: TRZAWR (Wheat, Winter, cv Riband); experiment: Preemergence herbicidal evaluation; assay type: in vivo, Triticum aestivum; conditions: rated 4-5 weeks after treatment
Method in brief: as §1

[4] = system: MOOVA (Monochoria); experiment: Preemergence weed control under flooded paddy conditions; assay type: in vivo, Monochoria vaginalis; conditions: rated 3-4 weeks after treatment
Method in brief: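 Seeds or propagules sown in top 0.5 cm of silt loam soil, flooded 1.5 to 3 cm above surface throughout. Compound in 50/50 v/v aqueous/acetone pipetted into flood water at about 0.0313 to 0.500 kg/ha. Visual 0-9 rating versus control after three to four weeks in greenhouse.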

[5] = system: ABUTH (Velvetleaf); experiment: Postemergence herbicidal evaluation; assay type: in vivo, Abutilon theophrasti; conditions: postemergence
Method in brief: (§2)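 Two-week seedlings sprayed postemergence at 40 psi; formulation: 1:1 acetone/water, 0.5% TWEEN 20; application ≈0.0156–0.500 kg/ha. Greenhouse grow-out, then 0–9 visual scoring at 4–5 weeks.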

[6] = system: IPOHE (Morningglory, Ivyleaf); experiment: Postemergence herbicidal evaluation; assay type: in vivo, Ipomoea hederacea; conditions: postemergence
Method in brief: as §2

[7] = system: ECHORC (Watergrass (Calif.)); experiment: Preemergence weed control under flooded paddy conditions; assay type: in vivo, Echinochloa oryzoides; conditions: rated 3-4 weeks after treatment
Method in brief: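 Herbicidal effect is scored visually on a 0-9 scale against an untreated control, three to four weeks after compounds are pipetted into the flood water (1.5 to 3 cm deep) over seeds planted in silt loam at 0.5 cm depth. Rates: about 0.0313 to 0.500 kg/ha.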

[8] = system: CHEAL (Lambsquarters, Common); experiment: Preemergence herbicidal evaluation; assay type: in vivo, Chenopodium album; conditions: rated 4-5 weeks after treatment
Method in brief: as §1

[9] = system: TRZAWR (Wheat, Winter, cv Riband); experiment: Postemergence herbicidal evaluation; assay type: in vivo, Triticum aestivum; conditions: postemergence
Method in brief: as §2

[10] = system: SETVI (Foxtail, Green); experiment: Preemergence herbicidal evaluation; assay type: in vivo, Setaria viridis; conditions: rated 4-5 weeks after treatment
Method in brief: as §1

[11] = system: ORYSAT (Rice, Tebonnet); experiment: Preemergence herbicidal evaluation; assay type: in vivo, Oryza sativa, (L.) Tebonnet; conditions: rated 4-5 weeks after treatment
Method in brief: as §1

Compound: CCOC(=O)CN1C(=O)C(OC)SC1=Nc1cc(-n2c(=O)cc(C(F)(F)F)n(C)c2=O)c(F)cc1Cl (stereo not shown) [Compound 160, Ethyl 2-{{2-chloro-5-[3,6-dihydro-3-methyl-2,6-dioxo-4-(trifluoromethyl)-1(2H)-pyrimidinyl]-4-fluorophenyl}imino}-5-methoxy-4-oxo-3-thiazolidineacetate]
- Preemergence herbicidal rating ECHCG ([1]; 0.0156 kg/ha): 0.0
- Preemergence herbicidal rating ECHCG ([1]; 0.0313 kg/ha): 0.0
- Preemergence herbicidal rating ECHCG ([1]; 0.0625 kg/ha): 1.0
- Preemergence herbicidal rating ECHCG ([1]; 0.1250 kg/ha): 2.0
- Preemergence herbicidal rating ECHCG ([1]; 0.2500 kg/ha): 9.0
- Preemergence herbicidal rating ECHCG ([1]; 0.5000 kg/ha): 9.0
- Preemergence herbicidal rating IPOHE ([2]; 0.0156 kg/ha): 3.0
- Preemergence herbicidal rating IPOHE ([2]; 0.0313 kg/ha): 6.0
- Preemergence herbicidal rating IPOHE ([2]; 0.0625 kg/ha): 9.0
- Preemergence herbicidal rating IPOHE ([2]; 0.1250 kg/ha): 9.0
- Preemergence herbicidal rating IPOHE ([2]; 0.2500 kg/ha): 8.0
- Preemergence herbicidal rating IPOHE ([2]; 0.5000 kg/ha): 9.0
- Preemergence herbicidal rating TRZAWR ([3]; 0.0156 kg/ha): 0.0
- Preemergence herbicidal rating TRZAWR ([3]; 0.0313 kg/ha): 0.0
- Preemergence herbicidal rating TRZAWR ([3]; 0.0625 kg/ha): 1.0
- Preemergence herbicidal rating TRZAWR ([3]; 0.1250 kg/ha): 1.0
- Preemergence herbicidal rating TRZAWR ([3]; 0.2500 kg/ha): 4.0
- Preemergence herbicidal rating TRZAWR ([3]; 0.5000 kg/ha): 7.0
- herbicidal effect rating, MOOVA ([4]; 0.0313 kg/ha): 5.0
- herbicidal effect rating, MOOVA ([4]; 0.0625 kg/ha): 6.0
- herbicidal effect rating, MOOVA ([4]; 0.1250 kg/ha): 6.0
- herbicidal effect rating, MOOVA ([4]; 0.2500 kg/ha): 7.0
- Herbicidal rating ABUTH ([5]; rate 0.0156 kg/ha): 9.0
- Herbicidal rating ABUTH ([5]; rate 0.0313 kg/ha): 9.0
- Herbicidal rating ABUTH ([5]; rate 0.0625 kg/ha): 9.0
- Herbicidal rating ABUTH ([5]; rate 0.1250 kg/ha): 9.0
- Herbicidal rating IPOHE ([6]; rate 0.0156 kg/ha): 9.0
- Herbicidal rating IPOHE ([6]; rate 0.0313 kg/ha): 9.0
- Herbicidal rating IPOHE ([6]; rate 0.0625 kg/ha): 9.0
- Herbicidal rating IPOHE ([6]; rate 0.1250 kg/ha): 9.0
- herbicidal effect rating, ECHORC ([7]; 0.0313 kg/ha): 0.0
- herbicidal effect rating, ECHORC ([7]; 0.0625 kg/ha): 0.0
- herbicidal effect rating, ECHORC ([7]; 0.1250 kg/ha): 2.0
- herbicidal effect rating, ECHORC ([7]; 0.2500 kg/ha): 4.0
- Preemergence herbicidal rating CHEAL ([8]; 0.0156 kg/ha): 2.0
- Preemergence herbicidal rating CHEAL ([8]; 0.0313 kg/ha): 9.0
- Preemergence herbicidal rating CHEAL ([8]; 0.0625 kg/ha): 9.0
- Preemergence herbicidal rating CHEAL ([8]; 0.1250 kg/ha): 9.0
- Preemergence herbicidal rating CHEAL ([8]; 0.2500 kg/ha): 9.0
- Preemergence herbicidal rating CHEAL ([8]; 0.5000 kg/ha): 9.0
- Herbicidal rating TRZAWR ([9]; rate 0.0156 kg/ha): 3.0
- Herbicidal rating TRZAWR ([9]; rate 0.0313 kg/ha): 4.0
- Herbicidal rating TRZAWR ([9]; rate 0.0625 kg/ha): 5.0
- Herbicidal rating TRZAWR ([9]; rate 0.1250 kg/ha): 6.0
- Preemergence herbicidal rating SETVI ([10]; 0.0156 kg/ha): 0.0
- Preemergence herbicidal rating SETVI ([10]; 0.0313 kg/ha): 1.0
- Preemergence herbicidal rating SETVI ([10]; 0.0625 kg/ha): 7.0
- Preemergence herbicidal rating SETVI ([10]; 0.1250 kg/ha): 7.0
- Preemergence herbicidal rating SETVI ([10]; 0.2500 kg/ha): 7.0
- Preemergence herbicidal rating SETVI ([10]; 0.5000 kg/ha): 9.0
- Preemergence herbicidal rating ORYSAT ([11]; 0.0156 kg/ha): 0.0
- Preemergence herbicidal rating ORYSAT ([11]; 0.0313 kg/ha): 0.0
- Preemergence herbicidal rating ORYSAT ([11]; 0.0625 kg/ha): 1.0
- Preemergence herbicidal rating ORYSAT ([11]; 0.1250 kg/ha): 1.0
- Preemergence herbicidal rating ORYSAT ([11]; 0.2500 kg/ha): 7.0
- Preemergence herbicidal rating ORYSAT ([11]; 0.5000 kg/ha): 8.0

Compound: CC(C)N1C(=O)CSC1=Nc1cc(-n2c(=O)cc(C(F)(F)F)n(C)c2=O)c(F)cc1Cl [Compound 164, 3-{4-Chloro-2-fluoro-5-[(3-isopropyl-4-oxo-2-thiazolidinylidene)amino]phenyl}-1-methyl-6-(trifluoromethyl)-2,4(1H,3H)-pyrimidinedione]
- Preemergence herbicidal rating ECHCG ([1]; 0.0156 kg/ha): 0.0
- Preemergence herbicidal rating ECHCG ([1]; 0.0313 kg/ha): 7.0
- Preemergence herbicidal rating ECHCG ([1]; 0.0625 kg/ha): 7.0
- Preemergence herbicidal rating ECHCG ([1]; 0.1250 kg/ha): 9.0
- Preemergence herbicidal rating ECHCG ([1]; 0.2500 kg/ha): 9.0
- Preemergence herbicidal rating ECHCG ([1]; 0.5000 kg/ha): 9.0
- Preemergence herbicidal rating IPOHE ([2]; 0.0156 kg/ha): 4.0
- Preemergence herbicidal rating IPOHE ([2]; 0.0313 kg/ha): 9.0
- Preemergence herbicidal rating IPOHE ([2]; 0.0625 kg/ha): 9.0
- Preemergence herbicidal rating IPOHE ([2]; 0.1250 kg/ha): 9.0
- Preemergence herbicidal rating IPOHE ([2]; 0.2500 kg/ha): 9.0
- Preemergence herbicidal rating IPOHE ([2]; 0.5000 kg/ha): 9.0
- Preemergence herbicidal rating TRZAWR ([3]; 0.0156 kg/ha): 1.0
- Preemergence herbicidal rating TRZAWR ([3]; 0.0313 kg/ha): 1.0
- Preemergence herbicidal rating TRZAWR ([3]; 0.0625 kg/ha): 4.0
- Preemergence herbicidal rating TRZAWR ([3]; 0.1250 kg/ha): 6.0
- Preemergence herbicidal rating TRZAWR ([3]; 0.2500 kg/ha): 7.0
- Preemergence herbicidal rating TRZAWR ([3]; 0.5000 kg/ha): 9.0
- herbicidal effect rating, MOOVA ([4]; 0.0313 kg/ha): 8.0
- herbicidal effect rating, MOOVA ([4]; 0.0625 kg/ha): 9.0
- herbicidal effect rating, MOOVA ([4]; 0.1250 kg/ha): 9.0
- herbicidal effect rating, MOOVA ([4]; 0.2500 kg/ha): 9.0
- Herbicidal rating ABUTH ([5]; rate 0.0156 kg/ha): 9.0
- Herbicidal rating ABUTH ([5]; rate 0.0313 kg/ha): 9.0
- Herbicidal rating ABUTH ([5]; rate 0.0625 kg/ha): 9.0
- Herbicidal rating ABUTH ([5]; rate 0.1250 kg/ha): 9.0
- Herbicidal rating IPOHE ([6]; rate 0.0156 kg/ha): 9.0
- Herbicidal rating IPOHE ([6]; rate 0.0313 kg/ha): 9.0
- Herbicidal rating IPOHE ([6]; rate 0.0625 kg/ha): 9.0
- Herbicidal rating IPOHE ([6]; rate 0.1250 kg/ha): 9.0
- herbicidal effect rating, ECHORC ([7]; 0.0313 kg/ha): 6.0
- herbicidal effect rating, ECHORC ([7]; 0.0625 kg/ha): 7.0
- herbicidal effect rating, ECHORC ([7]; 0.1250 kg/ha): 9.0
- herbicidal effect rating, ECHORC ([7]; 0.2500 kg/ha): 9.0
- Preemergence herbicidal rating CHEAL ([8]; 0.0156 kg/ha): 9.0
- Preemergence herbicidal rating CHEAL ([8]; 0.0313 kg/ha): 9.0
- Preemergence herbicidal rating CHEAL ([8]; 0.0625 kg/ha): 9.0
- Preemergence herbicidal rating CHEAL ([8]; 0.1250 kg/ha): 9.0
- Preemergence herbicidal rating CHEAL ([8]; 0.2500 kg/ha): 9.0
- Preemergence herbicidal rating CHEAL ([8]; 0.5000 kg/ha): 9.0
- Herbicidal rating TRZAWR ([9]; rate 0.0156 kg/ha): 4.0
- Herbicidal rating TRZAWR ([9]; rate 0.0313 kg/ha): 4.5
- Herbicidal rating TRZAWR ([9]; rate 0.0625 kg/ha): 5.5
- Herbicidal rating TRZAWR ([9]; rate 0.1250 kg/ha): 5.5
- Preemergence herbicidal rating SETVI ([10]; 0.0156 kg/ha): 4.0
- Preemergence herbicidal rating SETVI ([10]; 0.0313 kg/ha): 9.0
- Preemergence herbicidal rating SETVI ([10]; 0.0625 kg/ha): 9.0
- Preemergence herbicidal rating SETVI ([10]; 0.1250 kg/ha): 9.0
- Preemergence herbicidal rating SETVI ([10]; 0.2500 kg/ha): 9.0
- Preemergence herbicidal rating SETVI ([10]; 0.5000 kg/ha): 9.0
- Preemergence herbicidal rating ORYSAT ([11]; 0.0156 kg/ha): 1.0
- Preemergence herbicidal rating ORYSAT ([11]; 0.0313 kg/ha): 1.0
- Preemergence herbicidal rating ORYSAT ([11]; 0.0625 kg/ha): 3.0
- Preemergence herbicidal rating ORYSAT ([11]; 0.1250 kg/ha): 5.0
- Preemergence herbicidal rating ORYSAT ([11]; 0.2500 kg/ha): 7.0
- Preemergence herbicidal rating ORYSAT ([11]; 0.5000 kg/ha): 9.0
